From ChEMBL document CHEMBL1201862, “PubChem BioAssay data set” (2004)
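Assay format: 96-well plates, 48-hour exposure. GI50: concentration for 50% inhibition of growth.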 Calls of active or inactive are those of the source. Rule as the data show it: active = GI50 up to about 1.1 µM and inactive = higher. Non-standard residues stand in square brackets, D forms with d. Residues, ends and D or L forms follow the SMILES beside them. *: point of attachment. Bn2Val = CC(C)[C@@H](C(=O)*)N(Cc1ccccc1)Cc1ccccc1; NMeV = CN[C@H](C(=O)O)C(C)C; X32 = COc1ccc(CN*)c(OC)c1; dNMeA = CN[C@H](C)C(=O)O

Legend:
Test in all cases: DTP human tumour cell line panel, 48 h
IGROV-1 = test system: IGROV-1
SR = test system: SR
SW-620 = test system: SW-620
T47D = test system: T47D
BT-549 = test system: BT-549
UACC-62 = test system: UACC-62
HOP-92 = test system: HOP-92
NCI-H226 = test system: NCI-H226
A549 = test system: A549
SK-OV-3 = test system: SK-OV-3
KM12 = test system: KM12
LOX IMVI = test system: LOX IMVI
SN12C = test system: SN12C
PC-3 = test system: PC-3
M14 = test system: M14
SF-295 = test system: SF-295
RPMI-8226 = test system: RPMI-8226
SK-MEL-5 = test system: SK-MEL-5
UO-31 = test system: UO-31
NCI-H460 = test system: NCI-H460

Measured: GI50

CCN(CC)CCC(=O)c1ccc(Oc2ccc(C)cc2)cc1
inactive: IGROV-1 20.1 µM | SR 26.2 µM | SW-620 18.7 µM | T47D 18.2 µM | BT-549 18 µM | UACC-62 17.3 µM | HOP-92 23.7 µM | NCI-H226 35.2 µM | A549 > 100 µM | SK-OV-3 28.4 µM | KM12 10.9 µM | LOX IMVI 16.7 µM | SN12C 16.7 µM | PC-3 17.9 µM | M14 16.6 µM | SF-295 17.5 µM | RPMI-8226 7.29 µM

COC(=O)/C=C1\C(CO[Si](C)(C)C(C)(C)C)OC(n2ccc(=O)[nH]c2=O)C1O (configuration not stated)
inactive: IGROV-1 20 µM | SR 6.98 µM | SW-620 9.73 µM | T47D 3.63 µM | BT-549 18.7 µM | UACC-62 13.7 µM | HOP-92 15.2 µM | NCI-H226 5.58 µM | A549 6.35 µM | SK-MEL-5 6.28 µM | KM12 7.06 µM | LOX IMVI 6.41 µM | SN12C 8.57 µM | PC-3 3.47 µM | UO-31 9.89 µM | M14 17.5 µM | SF-295 9.82 µM | NCI-H460 5.9 µM | RPMI-8226 6.07 µM

CC(=O)c1c(O)cc(O)c(-c2c(C)cc(O)c3c2C(=O)c2cccc(O)c2C3=O)c1O
inactive: IGROV-1 11.6 µM | SR 16.3 µM | SW-620 18.7 µM | T47D 4.95 µM | BT-549 17.5 µM | UACC-62 14.5 µM | HOP-92 11.8 µM | NCI-H226 18.3 µM | A549 14.6 µM | SK-OV-3 13.1 µM | KM12 16.2 µM | LOX IMVI 12.8 µM | SN12C 19.1 µM | PC-3 11 µM | UO-31 14.5 µM | M14 20.3 µM | SF-295 13.1 µM | NCI-H460 15 µM | RPMI-8226 7.76 µM

CCc1c(Cc2cccc3ccccc23)n2c(nc1=O)SCC2OCCO (configuration not stated)
active: HOP-92 0.328 µM
inactive: IGROV-1 24.7 µM | SR 25.9 µM | SW-620 70.5 µM | T47D 31 µM | BT-549 41.7 µM | UACC-62 56.5 µM | NCI-H226 > 100 µM | A549 77.3 µM | SK-MEL-5 95.5 µM | KM12 56.5 µM | LOX IMVI 79.3 µM | SN12C > 100 µM | PC-3 52.6 µM | UO-31 > 100 µM | M14 > 100 µM | NCI-H460 > 100 µM | RPMI-8226 25.7 µM

COc1ccc(CNC(=O)[C@@H]2CCCN2C(=O)[C@@H](C)N(C)C(=O)[C@H](C(C)C)N(C)C(=O)[C@@H](NC(=O)[C@H](C(C)C)N(Cc2ccccc2)Cc2ccccc2)C(C)C)c(OC)c1 (Bn2Val-V[NMeV][dNMeA]P-X32)
inactive: IGROV-1 3.4 µM | SR 2.15 µM | SW-620 3.5 µM | T47D 10.6 µM | BT-549 2.56 µM | UACC-62 4.18 µM | HOP-92 2.74 µM | NCI-H226 5.41 µM | A549 3.77 µM | SK-OV-3 10.7 µM | KM12 2.36 µM | LOX IMVI 2.84 µM | SN12C 1.78 µM | PC-3 2.9 µM | UO-31 3.86 µM | M14 2.84 µM | SF-295 3.34 µM | NCI-H460 3.52 µM | RPMI-8226 2.67 µM

c1cncc(C2(c3cc4ccccc4[nH]3)COCO2)c1 (configuration not stated)
inactive: IGROV-1 > 100 µM | SR > 100 µM | SW-620 > 100 µM | T47D > 100 µM | BT-549 > 100 µM | UACC-62 96.8 µM | HOP-92 > 100 µM | NCI-H226 > 100 µM | A549 94.2 µM | SK-OV-3 > 100 µM | SK-MEL-5 38.2 µM | KM12 > 100 µM | LOX IMVI > 100 µM | PC-3 94.2 µM | UO-31 58.3 µM | M14 > 100 µM | SF-295 > 100 µM | NCI-H460 > 100 µM | RPMI-8226 > 100 µM

CS(=O)(=O)Nc1ccc2c(c1)N(S(C)(=O)=O)CC2COS(C)(=O)=O (configuration not stated)
inactive: IGROV-1 > 100 µM | SR 23.3 µM | SW-620 32.2 µM | T47D > 100 µM | BT-549 50.4 µM | UACC-62 > 100 µM | HOP-92 33.2 µM | NCI-H226 > 100 µM | A549 > 100 µM | SK-MEL-5 18.9 µM | KM12 > 100 µM | LOX IMVI 70 µM | SN12C > 100 µM | PC-3 > 100 µM | UO-31 > 100 µM | SF-295 58.7 µM | NCI-H460 90.8 µM | RPMI-8226 25.8 µM

O=C(C[C@@H]1NCCC[C@H]1O)Cn1cnc2cc(Br)c(Cl)cc2c1=O
active: IGROV-1 0.0296 µM | SR 0.0146 µM | SW-620 0.0259 µM | T47D 0.0246 µM | BT-549 0.0347 µM | HOP-92 0.0304 µM | NCI-H226 < 0.0115 µM | A549 0.0128 µM | SK-OV-3 < 0.0118 µM | SK-MEL-5 0.0153 µM | KM12 0.0171 µM | LOX IMVI < 0.01 µM | SN12C < 0.01 µM | PC-3 0.0351 µM | UO-31 0.0376 µM | M14 0.0178 µM | SF-295 0.024 µM | NCI-H460 0.0127 µM | RPMI-8226 0.0243 µM

Cc1ccnc2c1ccc1nc3ccccc3n12
inactive: IGROV-1 25.5 µM | SR 44.7 µM | SW-620 > 100 µM | T47D 18.5 µM | BT-549 63.5 µM | UACC-62 > 100 µM | HOP-92 85.1 µM | NCI-H226 18.4 µM | A549 > 100 µM | SK-MEL-5 17.7 µM | KM12 22 µM | LOX IMVI > 100 µM | SN12C 61.5 µM | PC-3 > 100 µM | UO-31 30.6 µM | M14 > 100 µM | SF-295 87.7 µM | NCI-H460 45.6 µM | RPMI-8226 > 100 µM

COc1cc(COC(=O)N2CSCC2C(=O)O)c([N+](=O)[O-])cc1OC (configuration not stated)
inactive: IGROV-1 > 100 µM | SR > 100 µM | SW-620 > 100 µM | T47D > 100 µM | BT-549 > 100 µM | UACC-62 > 100 µM | HOP-92 > 100 µM | NCI-H226 > 100 µM | A549 > 100 µM | SK-OV-3 > 100 µM | SK-MEL-5 > 100 µM | KM12 > 100 µM | SN12C > 100 µM | PC-3 > 100 µM | UO-31 > 100 µM | M14 > 100 µM | SF-295 > 100 µM | NCI-H460 > 100 µM | RPMI-8226 > 100 µM

O=C1Nc2cccc(Cl)c2/C1=C\c1c(-c2ccccc2)nc2n1CCS2
inactive: IGROV-1 12.8 µM | SR 19.8 µM | SW-620 14.9 µM | T47D 17.5 µM | BT-549 22.1 µM | UACC-62 17.9 µM | HOP-92 20 µM | A549 18.6 µM | SK-OV-3 24.4 µM | SK-MEL-5 19.5 µM | KM12 20.8 µM | LOX IMVI 16 µM | SN12C 16 µM | PC-3 18.6 µM | UO-31 19.1 µM | M14 20.9 µM | SF-295 28.7 µM | NCI-H460 17.8 µM | RPMI-8226 16.5 µM

CCOC(=O)/C(=C\c1ccc(CO)o1)P(=O)(OCC)OCC
inactive: IGROV-1 37.2 µM | SR 41.9 µM | SW-620 27.4 µM | T47D 91.2 µM | BT-549 20.1 µM | UACC-62 38.7 µM | HOP-92 23.7 µM | NCI-H226 > 100 µM | A549 > 100 µM | SK-OV-3 68.5 µM | SK-MEL-5 > 100 µM | KM12 33.3 µM | LOX IMVI 18.5 µM | SN12C 30.5 µM | PC-3 5.43 µM | M14 31.9 µM | SF-295 > 100 µM | NCI-H460 17 µM | RPMI-8226 40.7 µM

CC(C)(C)C1CCC2c3c([nH]c4ccccc34)C3C(=O)N(c4ccc([N+](=O)[O-])cc4)C(=O)C3C2C1 (configuration not stated)
inactive: IGROV-1 11.5 µM | SR 3.27 µM | SW-620 21 µM | T47D 13.9 µM | BT-549 16.2 µM | UACC-62 3.12 µM | HOP-92 2.7 µM | NCI-H226 13.9 µM | A549 10.8 µM | SK-OV-3 35.1 µM | SK-MEL-5 12.2 µM | KM12 1.77 µM | LOX IMVI 8.34 µM | SN12C 4.86 µM | PC-3 26.9 µM | M14 23.9 µM | SF-295 27.2 µM | NCI-H460 13.6 µM | RPMI-8226 27 µM

CCCCCCCCCCCC1=C(O)C(=O)C(CC2=C(O)C(=O)C(CCCCCCCCCCC)=C(O)C2=O)=C(O)C1=O
inactive: IGROV-1 > 100 µM | SR 19.2 µM | SW-620 > 100 µM | T47D > 100 µM | BT-549 > 100 µM | UACC-62 > 100 µM | HOP-92 16.3 µM | NCI-H226 > 100 µM | A549 > 100 µM | SK-OV-3 50.9 µM | SK-MEL-5 > 100 µM | KM12 > 100 µM | LOX IMVI > 100 µM | SN12C > 100 µM | PC-3 > 100 µM | UO-31 > 100 µM | M14 > 100 µM | SF-295 35.2 µM | NCI-H460 > 100 µM
